Read-outs that look alike come from different tables or passages of the source.
Tested on: HEK293T cells
Assay type: cell-based
Conditions: HEK293T
Outline: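 HEK293T and U2OS cells (DMEM) and MRC-9 fibroblasts (EMEM) exposed to compounds at 1 and 10 μM. Live-cell confocal imaging of cell shape and fluorescence before and at 12, 24 and 48 h. Normalized to 0.1% DMSO; biological duplicates with SEM.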

[1] = 1 µM, 0 h after treatment, biological replicate 1
[2] = 1 µM, 0 h after treatment, biological replicate 2
[3] = 1 µM, 12 h after treatment, biological replicate 1
[4] = 1 µM, 12 h after treatment, biological replicate 2
[5] = 1 µM, 24 h after treatment, biological replicate 1
[6] = 1 µM, 24 h after treatment, biological replicate 2
[7] = 1 µM, 48 h after treatment, biological replicate 1
[8] = 1 µM, 48 h after treatment, biological replicate 2
[9] = 10 µM, 0 h after treatment, biological replicate 1
[10] = 10 µM, 0 h after treatment, biological replicate 2
[11] = 10 µM, 12 h after treatment, biological replicate 1
[12] = 10 µM, 12 h after treatment, biological replicate 2
[13] = 10 µM, 24 h after treatment, biological replicate 1
[14] = 10 µM, 24 h after treatment, biological replicate 2
[15] = 10 µM, 48 h after treatment, biological replicate 1
[16] = 10 µM, 48 h after treatment, biological replicate 2

CC(C)C(=O)Nc1ncc(C(=O)NCCN(Cc2ccccc2)C(=O)c2ccc(S(=O)(=O)Nc3ccccc3)cc2)s1 [TH470]
Cell count normalized to cells treated with DMSO control [1]: 0.821
Cell count per well [1]: 245
Population Fragmented Nuclei (%) [1]: 8.67%
Population Healthy Nuclei (%) [1]: 36.73%
Population Pyknosed Nuclei (%) [1]: 54.59%
Population apoptotic cell (%) [1]: 45.79%
Population cell that influence microtubule strucutre (%) [1]: 23.61%
Population with increased mitochondrial mass (%) [1]: 62.50%
Population with membrane disruption (%) [1]: 0.00%
Cell count normalized to cells treated with DMSO control [2]: 1.084
Cell count per well [2]: 248
Population Fragmented Nuclei (%) [2]: 6.57%
Population Healthy Nuclei (%) [2]: 60.56%
Population Pyknosed Nuclei (%) [2]: 32.86%
Population apoptotic cell (%) [2]: 65.71%
Population cell that influence microtubule strucutre (%) [2]: 23.26%
Population with increased mitochondrial mass (%) [2]: 77.52%
Population with membrane disruption (%) [2]: 0.00%
Cell count normalized to cells treated with DMSO control [3]: 0.762
Cell count per well [3]: 347
Population Fragmented Nuclei (%) [3]: 6.25%
Population Healthy Nuclei (%) [3]: 79.38%
Population Pyknosed Nuclei (%) [3]: 14.38%
Population apoptotic cell (%) [3]: 34.78%
Population cell that influence microtubule strucutre (%) [3]: 27.17%
Population with increased mitochondrial mass (%) [3]: 44.49%
Population with membrane disruption (%) [3]: 0.79%
Cell count normalized to cells treated with DMSO control [4]: 1.119
Cell count per well [4]: 392
Population Fragmented Nuclei (%) [4]: 8.45%
Population Healthy Nuclei (%) [4]: 80.85%
Population Pyknosed Nuclei (%) [4]: 10.70%
Population apoptotic cell (%) [4]: 44.74%
Population cell that influence microtubule strucutre (%) [4]: 20.91%
Population with increased mitochondrial mass (%) [4]: 53.66%
Population with membrane disruption (%) [4]: 0.70%
Cell count normalized to cells treated with DMSO control [5]: 0.7629
Cell count per well [5]: 463
Population Fragmented Nuclei (%) [5]: 9.77%
Population Healthy Nuclei (%) [5]: 77.91%
Population Pyknosed Nuclei (%) [5]: 12.33%
Population apoptotic cell (%) [5]: 49.06%
Population cell that influence microtubule strucutre (%) [5]: 18.21%
Population with increased mitochondrial mass (%) [5]: 28.66%
Population with membrane disruption (%) [5]: 1.49%
Cell count normalized to cells treated with DMSO control [6]: 1.065
Cell count per well [6]: 481
Population Fragmented Nuclei (%) [6]: 9.19%
Population Healthy Nuclei (%) [6]: 81.84%
Population Pyknosed Nuclei (%) [6]: 8.97%
Population apoptotic cell (%) [6]: 42.50%
Population cell that influence microtubule strucutre (%) [6]: 14.25%
Population with increased mitochondrial mass (%) [6]: 34.25%
Population with membrane disruption (%) [6]: 0.55%
Cell count normalized to cells treated with DMSO control [7]: 0.791
Cell count per well [7]: 800
Population Fragmented Nuclei (%) [7]: 15.22%
Population Healthy Nuclei (%) [7]: 78.13%
Population Pyknosed Nuclei (%) [7]: 6.65%
Population apoptotic cell (%) [7]: 21.15%
Population cell that influence microtubule strucutre (%) [7]: 12.27%
Population with increased mitochondrial mass (%) [7]: 18.82%
Population with membrane disruption (%) [7]: 1.47%
Cell count normalized to cells treated with DMSO control [8]: 1.233
Cell count per well [8]: 842
Population Fragmented Nuclei (%) [8]: 13.32%
Population Healthy Nuclei (%) [8]: 80.63%
Population Pyknosed Nuclei (%) [8]: 6.05%
Population apoptotic cell (%) [8]: 22.00%
Population cell that influence microtubule strucutre (%) [8]: 11.71%
Population with increased mitochondrial mass (%) [8]: 13.96%
Population with membrane disruption (%) [8]: 2.70%
Cell count normalized to cells treated with DMSO control [9]: 0.9315
Cell count per well [9]: 278
Population Fragmented Nuclei (%) [9]: 7.95%
Population Healthy Nuclei (%) [9]: 44.77%
Population Pyknosed Nuclei (%) [9]: 47.28%
Population apoptotic cell (%) [9]: 36.28%
Population cell that influence microtubule strucutre (%) [9]: 15.89%
Population with increased mitochondrial mass (%) [9]: 64.49%
Population with membrane disruption (%) [9]: 0.00%
Cell count normalized to cells treated with DMSO control [10]: 0.9485
Cell count per well [10]: 217
Population Fragmented Nuclei (%) [10]: 6.86%
Population Healthy Nuclei (%) [10]: 61.76%
Population Pyknosed Nuclei (%) [10]: 31.37%
Population apoptotic cell (%) [10]: 54.69%
Population cell that influence microtubule strucutre (%) [10]: 26.19%
Population with increased mitochondrial mass (%) [10]: 83.33%
Population with membrane disruption (%) [10]: 0.00%
Cell count normalized to cells treated with DMSO control [11]: 0.7906
Cell count per well [11]: 360
Population Fragmented Nuclei (%) [11]: 7.79%
Population Healthy Nuclei (%) [11]: 76.01%
Population Pyknosed Nuclei (%) [11]: 16.20%
Population apoptotic cell (%) [11]: 50.00%
Population cell that influence microtubule strucutre (%) [11]: 67.21%
Population with increased mitochondrial mass (%) [11]: 73.77%
Population with membrane disruption (%) [11]: 0.00%
Cell count normalized to cells treated with DMSO control [12]: 0.8648
Cell count per well [12]: 303
Population Fragmented Nuclei (%) [12]: 4.80%
Population Healthy Nuclei (%) [12]: 76.38%
Population Pyknosed Nuclei (%) [12]: 18.82%
Population apoptotic cell (%) [12]: 66.67%
Population cell that influence microtubule strucutre (%) [12]: 63.77%
Population with increased mitochondrial mass (%) [12]: 85.02%
Population with membrane disruption (%) [12]: 0.97%
Cell count normalized to cells treated with DMSO control [13]: 0.6459
Cell count per well [13]: 392
Population Fragmented Nuclei (%) [13]: 10.66%
Population Healthy Nuclei (%) [13]: 68.30%
Population Pyknosed Nuclei (%) [13]: 21.04%
Population apoptotic cell (%) [13]: 42.47%
Population cell that influence microtubule strucutre (%) [13]: 67.93%
Population with increased mitochondrial mass (%) [13]: 75.53%
Population with membrane disruption (%) [13]: 0.00%
Cell count normalized to cells treated with DMSO control [14]: 0.6866
Cell count per well [14]: 310
Population Fragmented Nuclei (%) [14]: 8.92%
Population Healthy Nuclei (%) [14]: 72.12%
Population Pyknosed Nuclei (%) [14]: 18.96%
Population apoptotic cell (%) [14]: 45.10%
Population cell that influence microtubule strucutre (%) [14]: 52.06%
Population with increased mitochondrial mass (%) [14]: 79.38%
Population with membrane disruption (%) [14]: 1.55%
Cell count normalized to cells treated with DMSO control [15]: 0.5428
Cell count per well [15]: 549
Population Fragmented Nuclei (%) [15]: 15.79%
Population Healthy Nuclei (%) [15]: 71.54%
Population Pyknosed Nuclei (%) [15]: 12.67%
Population apoptotic cell (%) [15]: 44.62%
Population cell that influence microtubule strucutre (%) [15]: 57.49%
Population with increased mitochondrial mass (%) [15]: 61.58%
Population with membrane disruption (%) [15]: 2.45%
Cell count normalized to cells treated with DMSO control [16]: 0.5405
Cell count per well [16]: 369
Population Fragmented Nuclei (%) [16]: 12.20%
Population Healthy Nuclei (%) [16]: 75.00%
Population Pyknosed Nuclei (%) [16]: 12.80%
Population apoptotic cell (%) [16]: 55.81%
Population cell that influence microtubule strucutre (%) [16]: 64.68%
Population with increased mitochondrial mass (%) [16]: 73.81%
Population with membrane disruption (%) [16]: 1.19%

From publication PMC12090182, “Repurposing of the RIPK1-Selective Benzo[1,4]oxazepin-4-one Scaffold for the Development of a Type III LIMK1/2 Inhibitor” (ACS Chemical Biology, 2025)
